According to US20170121768A1, “ATRIAL FIBRILLATION THERAPY” (The University of Birmingham, priority 2014, published 2017):

How the values were obtained:
[1] = test system: Pitx2c+/- mouse heart (left atrium); assay: Electrophysiological study in the isolated Langendorff-perfused beating heart, Pitx2c+/- mice
Excerpt: (§1) The inventors studied the effects of the sodium channel blocker flecainide in the isolated, beating heart of wild type mice and mice with a heterozygous deletion of the Pitx2c gene. This mouse model (provided by Nigel Brown, St George's London) is an established model for reduced Pitx2 mRNA expression that is susceptible to AF. […] PITX2c^+/− and WT hearts (3-4 months old), were rapidly excised and Langendorff-perfused to record left atrial (LA) monophasic action potential duration. In this preparation, the beating heart is perfused with a warm, oxygenated modified Krebs-Henseleit solution containing (in mmol/1): NaCl 118; NaHCO3 24.88; KH2PO 1.18; Glucose 5.55; Na-Pyruvate 5; MgSO4 0.83; CaCl2 1.8; KCl 3.52 (95% O2-5% CO2, pH 7.4) at constant perfusion pressure (100±5 mmHg) and coronary flow (4±0.5 ml/min). Thereby, detailed electrophysiological measurements can be taken for 1-2 hours in the beating, functioning, intact heart (perfusate temperature 37° C., perfusion flow rate 3-5 mL/min) (Fabritz et al., Basic Res Cardiol 2003; 98:25-32). An octapolar murine electrophysiology catheter (0.5 mm electrode spacing, CIB'ER MOUSE, NuMED, Hopkinton, N.Y., USA) was inserted into the right atrium (RA) and right ventricle for pacing. Atrial and ventricular electrograms and monophasic action potential (MAP) from the left atrium were simultaneously recorded. After instrumentation, the hearts were subjected to a stabilization period of 10 minutes, followed by observation of spontaneous sinus rhythm for 5 minutes to provoke repolarization-related arrhythmias. Then the right atrium was paced at constant physiological heart rates (80-120 ms paced cycle length) for 1.5 minutes of pacing per heart rate to record steady-state action potential duration, and premature right atrial stimulation was performed using trains of 8 beats following by a premature stimulus in 2 ms steps to determine the effective refractory period (ERP) and inducibility of arrhythmias. Arrhythmias>1 second were counted. The pacing protocol was repeated after adding flecainide acetate (1 μm) to the perfusate. Experiments were accepted for analysis of action potential duration and activation time if they met published quality criteria and if MAPs were stable. […] were accepted for analysis of action potentials and activation times, and signals>0.5 mV amplitude were accepted for evaluation of arrhythmias. Recordings were manually screened for arrhythmias. Atrial fibrillation was defined as >5 closely couple polymorphic consecutive atrial ectopic beats with a cycle length shorter than sinus-rhythm cycle length.

[2] = test system: wild type mouse heart (left atrium); assay: Electrophysiological study in the isolated Langendorff-perfused beating heart, wild type mice
Excerpt: as §1

Pitx2c+/- left atria = assay: Transmembrane potential recordings in isolated, superfused left atria, Pitx2c+/-; parameters: species or system mouse; details: sharp electrodes
Method: (§2) Transmembrane action potentials were recorded from isolated superfused left atria using borosilicate glass microelectrodes (tip resistance 15-30 MΩ), filled with 3 M KCl. […] LA were paced at different cycle lengths at 2 ms pulse width at 2× diastolic threshold through bipolar platinum electrodes. APD was analysed off line (spike 2, CED, UK). After 15 min pacing for equilibration, preparations were paced successively at increasing frequencies from 0.5 to 10 Hz, with 200 beats at each frequency to ensure steady state prior to recording.

wildtype left atria = assay: Transmembrane potential recordings in isolated, superfused left atria, wild type; parameters: species or system mouse; details: sharp electrodes
Method: as §2

| Structure (SMILES) | effective refractory period (ERP) ([1]; Pitx2c+/- hearts after flecainide perfusion, compared with wild-type) | suppression of inducible atrial fibrillation ([1]; Pitx2c+/- hearts with AF at baseline (8/21), flecainide acetate 1 μm in perfusate, premature atrial stimulation) | atrial action potential duration (APD) ([1]; Pitx2c+/- hearts, flecainide perfusion, paced cycle lengths 80-100-120 ms) | post-repolarization refractoriness ([1]; Pitx2c+/- mice, 80 ms paced cycle length, flecainide perfusion) | atrial activation times ([1]; Pitx2c+/- mice, after flecainide perfusion) | atrial action potential duration (APD) ([2]; WT hearts, flecainide perfusion, paced cycle lengths 80-100-120 ms) | post-repolarization refractoriness ([2]; WT mice, 80 ms paced cycle length, flecainide perfusion) | hearts with arrhythmias ([2]; wild type hearts with flecainide (baseline 4/16), arrhythmias >1 second counted) | suppression of inducible atrial fibrillation ([2]; wild type hearts, flecainide acetate 1 μm in perfusate, premature atrial stimulation) | atrial activation times ([2]; wild-type mice, after flecainide perfusion) | resting membrane potential (Pitx2c+/- left atria) | resting membrane potential (wildtype left atria) | atrial APD ([1]; Pitx2c+/- hearts, sotalol 10 μM, three pairs of mice) | atrial APD ([2]; WT hearts, sotalol 10 μM, three pairs of mice) |
| --- | --- | --- | --- | --- | --- | --- | --- | --- | --- | --- | --- | --- | --- | --- |
| O=C(NCC1CCCCN1)c1cc(OCC(F)(F)F)ccc1OCC(F)(F)F (centres unmarked) [flecainide] | increases effective refractory periods | suppressed atrial fibrillation in all Pitx2c+/− hearts | does not alter atrial APD | 12 ms | marked effect | does not alter atrial APD | 7.5 ms | 4/11 | did not suppress atrial fibrillation | negligible effect | did not alter resting membrane potential | did not alter resting membrane potential |  |  |
| CC(C)NCC(O)c1ccc(NS(C)(=O)=O)cc1 (centres unmarked) [sotalol, d,l sotalol] |  |  |  |  |  |  |  |  |  |  |  |  | did not alter atrial APD | prolonged atrial APD |
